In US11999727B2 (Tango Therapeutics, Inc., priority 2020, dated 2024):
pIC50: −log10 of the molar value. Where two headings read alike, the source gives them in different places.

Key:
PRMT5 [1] = target: T1, PRMT5 (Homo sapiens, UniProt O14744); experiment: PRMT5 biochemical IC50 assay with SAM as cofactor; details: PRMT5, SAM as cofactor; read-out: SAM IC50
T1 construct: purchased Viva (custom protein)

PRMT5 [2] = target: T1, PRMT5; experiment: PRMT5 biochemical IC50 assay with no cofactor; details: PRMT5, no cofactor; read-out: No Cofactor/rel IC50
Source text: Table 1 indicates IC50 values (μM) against PRMT5 for exemplary compounds in the presence of SAM as cofactor, with no cofactor, and with MTA as cofactor, respectively (columns 4-6). […] Ki values can be calculated from the IC50 values as described in the Examples section. As detailed in the Examples section, for the assay performed in the presence of SAM, IC50=Ki×1.5 (Ki=IC50/1.5).

PRMT5 [3] = target: T1, PRMT5; experiment: PRMT5 biochemical IC50 assay with MTA as cofactor; details: PRMT5, MTA as cofactor; read-out: MTA IC50
[4] = test system: HAP1 MTAP-deleted cell line; experiment: Viability assay, MTAP-deleted cell line; type: cell-based; details: Homo sapiens, read-out: HAP1 MTAP deleted viability
Source text: Table 1 additionally indicates IC50 values in a viability assay for the MTAP-deleted cell line (column 10), indicating the effect of treatment with compound on cell survival.

[5] = HAP1, viability assay, MTAP-deleted cell line
[6] = HAP1, viability IC50, MTAP-deleted cell line
[7] = HAP1, viability assay, HAP1 MTAP-deleted

T1 sequence (O14744 whole entry): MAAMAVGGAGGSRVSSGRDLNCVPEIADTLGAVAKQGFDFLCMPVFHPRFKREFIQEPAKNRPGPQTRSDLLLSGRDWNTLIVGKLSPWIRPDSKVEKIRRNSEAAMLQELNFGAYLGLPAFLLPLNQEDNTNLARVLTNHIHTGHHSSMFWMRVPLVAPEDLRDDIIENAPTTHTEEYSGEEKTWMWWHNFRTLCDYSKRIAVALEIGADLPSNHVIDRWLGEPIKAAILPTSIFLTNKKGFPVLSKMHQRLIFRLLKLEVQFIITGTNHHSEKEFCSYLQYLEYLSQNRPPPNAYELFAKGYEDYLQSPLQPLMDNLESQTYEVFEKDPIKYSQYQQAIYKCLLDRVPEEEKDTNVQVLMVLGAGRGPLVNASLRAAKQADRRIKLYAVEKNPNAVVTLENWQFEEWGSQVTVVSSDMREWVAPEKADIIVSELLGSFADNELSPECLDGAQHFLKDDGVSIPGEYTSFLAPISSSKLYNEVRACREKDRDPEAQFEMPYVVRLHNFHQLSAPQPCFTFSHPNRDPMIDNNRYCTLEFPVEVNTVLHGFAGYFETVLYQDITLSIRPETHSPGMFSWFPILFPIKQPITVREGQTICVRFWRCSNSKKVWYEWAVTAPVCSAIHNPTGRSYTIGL
T1 sequence (Q9BQA1 whole entry partner): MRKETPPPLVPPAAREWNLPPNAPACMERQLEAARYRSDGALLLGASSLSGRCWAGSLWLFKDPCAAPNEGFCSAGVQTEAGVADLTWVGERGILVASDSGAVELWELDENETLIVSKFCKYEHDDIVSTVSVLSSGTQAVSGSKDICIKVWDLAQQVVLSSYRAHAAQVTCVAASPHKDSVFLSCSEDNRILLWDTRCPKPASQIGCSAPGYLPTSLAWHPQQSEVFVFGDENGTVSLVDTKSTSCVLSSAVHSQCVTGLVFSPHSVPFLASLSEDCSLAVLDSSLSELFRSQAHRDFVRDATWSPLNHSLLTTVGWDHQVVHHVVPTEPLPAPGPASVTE

SMILES	pIC50 (PRMT5 [1])	pIC50 (PRMT5 [2])	pIC50 (PRMT5 [3])	pIC50 [4, 5]	pIC50 [4, 6]	pIC50 [4, 7]
C[C@H]1CC[C@H](c2ccc(NCC(F)(F)F)cc2)N(C(=O)C(=O)Nc2cncc(C(N)=O)c2)C1 (single isomer, unassigned) [Compound 456]	< 6.30	< 6.30	< 6.30	< 5.00		
COc1ncc(NC(=O)C(=O)N2C[C@@H](C)CC[C@@H]2c2ccc3c(c2)CCC(=O)N3)cc1C(N)=O (single isomer, unassigned) [Compound 673]	< 6.30	< 6.30	< 6.30		< 5.00	
Cc1cc(NC(=O)C(=O)N2C[C@H](C)CC[C@H]2c2cc(Cl)cc(C(F)(F)F)c2)cnc1N (single isomer, unassigned) [Compound 679]	< 6.30	< 6.30	6.30 to 7.30		< 5.00	
C[C@H]1CC[C@H](c2cc(F)c3[nH]ncc3c2)N(C(=O)C(=O)Nc2cncc(C(N)=O)c2)C1 (single isomer, unassigned) [Compound 680]	< 6.30	< 6.30	< 6.30		< 5.00	
Cc1cc(NC(=O)C(=O)N2C[C@@H](C)CC[C@@H]2c2cc(F)cc(Cl)c2)cnc1N (single isomer, unassigned) [Compound 682]	< 6.30	< 6.30	6.30 to 7.30		< 5.00	
CCc1cc(NC(=O)C(=O)N2C[C@H](C)CC[C@H]2c2ccc3c(c2)C(=O)NC3)cnc1N (single isomer, unassigned) [Compound 695]	< 6.30	< 6.30	< 6.30		< 5.00	
Cc1ncc(NC(=O)C(=O)N2C[C@@H](C)CC[C@@H]2c2ccc3c(c2)CCC(=O)N3)cc1C(F)(F)F (single isomer, unassigned) [Compound 698]	< 6.30	< 6.30	< 6.30		< 5.00	
CCc1cc(NC(=O)C(=O)N2C[C@H](C)CC[C@H]2c2ccc3c(c2)CNC3=O)cnc1N (single isomer, unassigned) [Compound 699, N-(6-amino-5-ethylpyridin-3-yl)-2-(5-methyl-2-(1-oxoisoindolin-5-yl)piperidin-1-yl)-2-oxoacetamide]	< 6.30	< 6.30	< 6.30		< 5.00	
Cc1cc(NC(=O)C(=O)N2C[C@H](C)CC[C@H]2c2cc(F)cc(F)c2)cnc1N (single isomer, unassigned) [Compound 712, N-(6-amino-5-methylpyridin-3-yl)-2-(2-(3,5-difluorophenyl)-5-methylpiperidin-1-yl)-2-oxoacetamide]	< 6.30	< 6.30	< 6.30			< 5.00
Cc1cc(NC(=O)C(=O)N2C[C@@H](C)C(F)(F)C[C@@H]2c2ccccc2)cnc1N (single isomer, unassigned) [Compound 713]	< 6.30	< 6.30	< 6.30			< 5.00
CNS(=O)(=O)c1ccc([C@@H]2CC[C@@H](C)CN2C(=O)C(=O)Nc2cncc(C(N)=O)c2)cc1 (single isomer, unassigned) [Compound 723]	< 6.30	< 6.30	< 6.30			< 5.00
CC(=O)Nc1ccc([C@H]2CC[C@H](C)CN2C(=O)C(=O)Nc2cncc(C(N)=O)c2)cn1 (single isomer, unassigned) [Compound 905]	< 6.30	< 6.30	< 6.30	< 5.00		
Cc1cc(NC(=O)C(=O)N2C[C@H](C)CC[C@H]2c2ccc(S(C)(=O)=O)cc2)cnc1N (single isomer, unassigned) [Compound 938]	< 6.30	< 6.30	< 6.30	< 5.00		
Cc1cc(NC(=O)C(=O)N2C[C@@H](C)CC[C@@H]2c2cccc3c2CCN3)cnc1N (single isomer, unassigned) [Compound 957]	< 6.30	< 6.30	< 6.30	< 5.00		
Cc1cc(NC(=O)C(=O)N2C[C@@H](C)CC[C@@H]2c2ccc3[nH]nc(N)c3c2)cnc1C (single isomer, unassigned) [Compound 958]	< 6.30	< 6.30	< 6.30	< 5.00		
C[C@H]1CC[C@H](c2cc3cn[nH]c3s2)N(C(=O)C(=O)Nc2cncc(C(N)=O)c2)C1 (single isomer, unassigned) [Compound 971, 5-(2-(5-methyl-2-(1H-thieno[2,3-c]pyrazol-5-yl)piperidin-1-yl)-2-oxoacetamido)nicotinamide]	< 6.30	< 6.30	< 6.30	< 5.00		
Cc1cc(NC(=O)C(=O)N2C[C@@H](C)CC[C@@H]2c2ccc(S(C)(=O)=O)cc2)cnc1N (single isomer, unassigned) [Compound 976]	6.30 to 7.30	6.30 to 7.30	> 7.30	5.00 to 6.00		

SMILES	pIC50 (PRMT5 [1])	pIC50 (PRMT5 [2])	pIC50 (PRMT5 [3])	pIC50 [4, 5]	pIC50 [4, 6]	pIC50 [4, 7]
Cc1cc(NC(=O)C(=O)N2C[C@H](C)CC[C@H]2c2ccc3sc(N)nc3c2)cnc1N (single isomer, unassigned) [Compound 981]	< 6.30	< 6.30	< 6.30	< 5.00		
CCc1cc(NC(=O)C(=O)N2C[C@@H](C)CC[C@@H]2c2ccc(NS(C)(=O)=O)nc2)cnc1N (single isomer, unassigned) [Compound 983]	< 6.30	< 6.30	< 6.30	< 5.00		
CCc1cc(NC(=O)C(=O)N2C[C@H](C)CC[C@H]2c2ccc3sc(N)nc3c2)cnc1N (single isomer, unassigned) [Compound 984]	< 6.30	< 6.30	< 6.30	< 5.00		
C[C@H]1CC[C@H](c2ccc(NS(C)(=O)=O)nc2)N(C(=O)C(=O)Nc2cncc(C(N)=O)c2)C1 (single isomer, unassigned) [Compound 985]	< 6.30	< 6.30	< 6.30	< 5.00		
C[C@H]1CC[C@H](c2ccc3sc(N)nc3c2)N(C(=O)C(=O)Nc2cncc(C(N)=O)c2)C1 (single isomer, unassigned) [Compound 987]	6.30 to 7.30	6.30 to 7.30	> 7.30	5.00 to 6.00		
Cc1cc(NC(=O)C(=O)N2C[C@H](C)CC[C@H]2c2ccc3c(c2)CCNC3=O)cnc1N (single isomer, unassigned) [Compound 994]	< 6.30	< 6.30	< 6.30	< 5.00		
CCc1cc(NC(=O)C(=O)N2C[C@@H](C)CC[C@@H]2c2ccc3sc(N)nc3c2)cnc1N (single isomer, unassigned) [Compound 996]	6.30 to 7.30	> 7.30	> 7.30	> 6.00		
COc1ncc(NC(=O)C(=O)N2C[C@@H](C)CC[C@@H]2c2ccc(NS(C)(=O)=O)nc2)cc1C(N)=O (single isomer, unassigned) [Compound 999]	< 6.30	< 6.30	< 6.30	< 5.00		
C[C@@H]1CC[C@@H](c2ccc3sc(N)nc3c2)N(C(=O)C(=O)Nc2cncc(C(N)=O)c2)C1 (single isomer, unassigned) [Compound 1001]	< 6.30	< 6.30	< 6.30	< 5.00		
Cc1cc(NC(=O)C(=O)N2C[C@@H](C)CC[C@@H]2c2ccc3cc[nH]c(=O)c3c2)cnc1N (single isomer, unassigned) [Compound 1021]	< 6.30	< 6.30	< 6.30	< 5.00		
CCc1cc(NC(=O)C(=O)N2C[C@@H](C)CC[C@@H]2c2ccc3sc(C(F)(F)F)nc3c2)cnc1N (single isomer, unassigned) [Compound 1022]	6.30 to 7.30	> 7.30	> 7.30	> 6.00		
CCc1cc(NC(=O)C(=O)N2C[C@H](C)CC[C@H]2c2ccc3sc(C(F)(F)F)nc3c2)cnc1N (single isomer, unassigned) [Compound 1027]	< 6.30	< 6.30	< 6.30	< 5.00		
COc1ncc(NC(=O)C(=O)N2C[C@H](C)CC[C@H]2c2ccc3sc(C(F)(F)F)nc3c2)cc1C(N)=O (single isomer, unassigned) [Compound 1030]	< 6.30	< 6.30	< 6.30	< 5.00		
Cc1cc(NC(=O)C(=O)N2C[C@H](C)CC[C@H]2c2ccc3cc[nH]c(=O)c3c2)cnc1N (single isomer, unassigned) [Compound 1031]	> 7.30	> 7.30	> 7.30	> 6.00		
Cc1cc(NC(=O)C(=O)N2C[C@@H](C)C(F)(F)C[C@@H]2c2cccc3[nH]ncc23)cnc1N (single isomer, unassigned) [Compound 1034]	< 6.30	< 6.30	< 6.30	< 5.00		
Cc1cc(NC(=O)C(=O)N2C[C@H](C)CC[C@H]2c2cccc3[nH]ccc23)cnc1N (single isomer, unassigned) [Compound 1035]	6.30 to 7.30	6.30 to 7.30	> 7.30	> 6.00		
Cc1cc(NC(=O)C(=O)N2C[C@@H](C)CC[C@@H]2c2cccc3[nH]ccc23)cnc1N (single isomer, unassigned) [Compound 1038]	< 6.30	< 6.30	< 6.30	< 5.00		
